# Measurements taken from patent US20240166596A1, “SULFAMOYL BENZENE DERIVATIVES AND USES THEREOF” (AphioTx Inc., priority 2021, published 2024).
# What was measured:
# Panx1 channel = target: T1, Panx1 channel (Mus musculus, UniProt Q9JIP4); experiment: YO-PRO-1 dye uptake assay in BV-2 microglia-like cells (BzATP stimulation); type: cell-based; conditions: BV-2 cells; pre-treatment; concentration not given
# T1 construct: endogenous in cells; host or cells: BV-2 microglia-like cells
# Method: After plating into 96 well plates, cell culture media was removed and BV-2 cells were incubated in extracellular solution (ECS) (140 mM NaCl, 4.5 mM KCl, 1.3 mM CaCl2, 10 mM HEPES, and 33 mM glucose; pH7.35, osmolarity 315 mOsm) containing YO-PRO-1 dye (2.5 μM, Invitrogen). After a 5 minute baseline recording, cells were stimulated with 3′-O-(4-benzoyl)benzoyl adenosine 5′-triphosphate (BzATP) (150 μM, Toronto Research Chemicals) and dye-uptake was recorded for 30 minutes. Cell viability was assessed immediately after the 30 minute recording by application of ionomycin (1 μM, Sigma). […] YO-PRO-1 fluorescent emission (491/509) was detected using a FilterMax F5 plate reader (Molecular Devices). Drugs used include (−)-norepinephrine (100 pM-1 μM, Sigma), probenecid (1 mM, Life Technologies), and Compound 1 (10 nM, Derksen et al). Drugs were bath applied in ECS containing YO-PRO-1 dye and incubated at 37° C. for 10 minutes prior to BzATP stimulation. Fluorescent emission at 30 minutes post-BzATP was calculated as an average of the entire imaging field as percent change from baseline, and responses at 30 minutes were averaged over multiple independent experiments. Individual traces of BV-2 YO-PRO-1 dye uptake were taken at 10 minute intervals and represent the average response of all BV-2 cells in the recorded view from a subset of experiments.
# BV-2 microglia-like cells were maintained in DMEM (Gibco) containing 5% fetal bovine serum (Gibco) and 1% penicillin-streptomycin (Gibco) with 5% CO2.
# The compounds tested were designed to more readily penetrate the blood brain barrier and were therefore predicted to require a lower dose to produce similar effects. Prior to testing the compounds in animals, the compounds were first tested in BV2 microglia-like cells using the YO-PRO-1 Dye Uptake Assay. By using this assay, Panx1 channel activity in response to BzATP stimulation of P2X7, an upstream receptor that causes Panx1 pore formation can be assessed. YO-PRO-1 is a large molecular weight dye that can only enter the cell through large pore ion channels such as Panx1, therefore its uptake correlates with Panx1 channel opening. BzATP stimulation causes a significant increase in YO-PRO-1 dye uptake in cells pre-treated with ECS and vehicle solution (0.1% DMSO) (FIG. 1, B).
# [1] = target: T2, rPanx1 (Rattus norvegicus Pannexin-1) expressed in 293T cells (Rattus norvegicus, UniProt P60570); experiment: Whole-cell patch-clamp of Panx1 currents in transfected 293T cells; type: cell-based, Homo sapiens
# T2 construct: expressed in transfected cells; host or cells: Human embryonic kidney-293T cells (ATCC), transient Lipofectamine 2000 transfection
# Method: To further compare the effects of probenecid, Compounds 1 and 5 on Pannexin-1 channels […] Panx-1 was expressed in embryonic kidney-293T cells (293T) and channel activity was assessed at various doses of each compound.
# Rattus norvegicus Pannexin-1 (rPanx1) complementary DNA (cDNA) was cloned between BamHI and SalI sites in a pRK5 expression vector (pRK5-rPanx1). Enhanced green fluorescent protein (EGFP) plasmid (pEGFP-C1) was commercially purchased (addgene).
# Human embryonic kidney-293T cells (293T) were purchased from ATCC and routinely maintained in the laboratory. Adherent 293T cells were grown in Dulbecco's modified Eagle's medium (Thermo Fisher) supplemented with 10% fetal bovine serum (Thermo Fisher) and 1% penicillin-streptomycin (10,000 U/mL; Thermo Fisher) at 37° C. in a 5% CO2 humidified growth incubator. 293T cells between the passages 6-20 were used for experiments. For patch-clamp recordings, 293T cells reaching 40-60% confluency on 35 mm culture plates were transiently transfected using Lipofectamine 2000 (Thermo Fisher) 36-48 hours before experiments, using the manufacturer's protocol. 293T cells were transfected with 2.5 μg pRK5-rPanx1 and 0.5 μg pEGFP-C1 cDNAs at a mixed ratio of 5:1 to identify positively transfected cells.
# On the day of experiments, transiently transfected 293T cells overexpressing rPanx1 and EGFP cDNAs were seeded onto poly-d-lysine coated glass coverslips at least 2 hours before recordings. […] Data was acquired using Clampex (v.10) software and an Axon Digidata 1550A digitizer (Axon Instruments) at 10 kHz, with currents analyzed offline in Clampfit software (v.10.7). […]
# 293T cells were voltage clamped at −60 mV in whole-cell configuration and exposed to a 300 ms voltage ramp (−80 to +80 mV) before stepping back to −60 mV to record rPanx1 voltage-sensitive currents. Baseline currents were first measured in extracellular solution before perfusion of drug compounds in incrementally increasing concentrations. […]
# C57BL/6J mice [2] = experiment: Naloxone-precipitated morphine withdrawal, composite withdrawal score; type: in vivo; conditions: 50 mg/kg i.p., 60 minutes prior to naloxone
# Method: Adult male C57BL/6J (7-9 weeks) mice were used. Mice were housed under 12/12 hour light/dark cycles with ad libitum access to food and water. Mice were randomly allocated to different test groups. All experiments were approved by the University of Calgary Animal Care Committee and are in accordance with the guidelines of the Canadian Council on Animal Care.
# Morphine sulfate (MS, PCCA) prepared in 0.9% sterile saline solution was injected i.p. into male C57BLJ6J (20-30g) mice. Mice received ascending doses of morphine (i.p.) at 8 hours intervals: day 1, 10mg/kg; day 2, 20 mg/kg; day 3, 30 mg/kg; day 4, 40mg/kg. On day 5, mice received a morning injection of morphine (50 mg/kg). A subset of mice received probenecid (15, 25, and 50 mg/kg i.p., Invitrogen) or Compound 1 (0.1, 0.5 and 1 mg/kg) 1 hour following morphine. Mice then received i.p. naloxone (2 mg/kg, naloxone hydrochloride dihydrate, Sigma) 2 hours following morphine to rapidly induce opioid withdrawal. Control mice received equivalent volumes of 0.9% saline or appropriate vehicle solution (0.1% DMSO in saline) and were challenged with naloxone on day 5. Withdrawal behaviors were then scored for 30 minutes post naloxone injection. Behaviors were scored for occurrence and then scaled for severity at 5-minute intervals. Behaviors that were assigned a standardized score between 0-3 depending on severity were jumping, headshakes, wet-dog shakes, chewing/licking, and teeth chattering. Behaviors that were scored 1 point for presence during a 5-minute interval include piloerection and tremors/twitching. The mice were then weighed following the 30 minutes, and the weight difference was assigned a standardized score dependent on the weight change between 0-3 as well. The scaled and present/absent signs were compiled over the 30 minutes to produce a composite withdrawal score.
# All data are presented as the mean±standard error mean (s.e.m), and each circle represents an individual animal or experiment. Tests of statistical difference were performed with GraphPad Prism 6 using either an ordinary one-way ANOVA with posthoc Dunnet test, or a two-way ANOVA with post hoc Sidak test. Sample sizes are consistent with those reported in similar studies and provide sufficient power to detect changes with the appropriate statistical analysis. For all experiments, a criterion a level was set at 0.05.
# C57BL/6J mice [3] = conditions: background statement; pharmacological blockade of Panx1; cited from earlier work
# C57BL/6J mice [4] = experiment: Naloxone-precipitated morphine withdrawal, composite withdrawal score; type: in vivo; conditions: 50 mg/kg, 30 minutes before withdrawal
# [5] = background statement; cited from earlier work
# T1 sequence (Q9JIP4 whole entry): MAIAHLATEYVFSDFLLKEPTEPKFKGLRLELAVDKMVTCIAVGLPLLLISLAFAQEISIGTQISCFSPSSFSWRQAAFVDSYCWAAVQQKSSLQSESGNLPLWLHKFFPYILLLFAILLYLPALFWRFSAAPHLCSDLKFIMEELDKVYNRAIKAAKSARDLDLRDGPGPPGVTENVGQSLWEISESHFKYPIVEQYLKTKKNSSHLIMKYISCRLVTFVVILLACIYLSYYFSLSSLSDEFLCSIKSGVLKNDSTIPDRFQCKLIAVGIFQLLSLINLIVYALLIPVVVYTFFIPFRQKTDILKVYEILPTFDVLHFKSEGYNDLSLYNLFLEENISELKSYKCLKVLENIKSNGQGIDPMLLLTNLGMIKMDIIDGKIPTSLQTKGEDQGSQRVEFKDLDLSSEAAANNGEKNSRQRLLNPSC
# T2 sequence (P60570 whole entry): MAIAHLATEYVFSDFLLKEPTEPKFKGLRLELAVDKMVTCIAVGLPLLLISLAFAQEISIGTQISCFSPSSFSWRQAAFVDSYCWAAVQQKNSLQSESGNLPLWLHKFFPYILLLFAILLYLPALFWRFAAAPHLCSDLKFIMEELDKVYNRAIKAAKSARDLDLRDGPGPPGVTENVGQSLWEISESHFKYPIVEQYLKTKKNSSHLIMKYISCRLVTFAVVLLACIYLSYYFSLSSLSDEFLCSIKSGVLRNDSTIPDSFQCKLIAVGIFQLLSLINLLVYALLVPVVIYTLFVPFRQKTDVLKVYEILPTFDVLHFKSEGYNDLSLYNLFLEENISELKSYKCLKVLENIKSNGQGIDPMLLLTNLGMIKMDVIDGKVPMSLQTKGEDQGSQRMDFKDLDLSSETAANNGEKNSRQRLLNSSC
compound,measurement,setting,value
"CN(C)S(=O)(=O)c1ccc(C(O)(C(F)(F)F)C(F)(F)F)cc1 [Compound 2, 4-(1,1,1,3,3,3-hexafluoro-2-hydroxypropan-2-yl)-N,N-dimethylbenzenesulfonamide]",Panx1 channel activity (BzATP-stimulated YO-PRO-1 dye uptake),Panx1 channel,significantly blocked
"CCCN(CCC)S(=O)(=O)c1ccc(-c2ccc3[nH]ncc3c2)cc1 [Compound 3, 4-(1H-indazol-5-yl)-N,N-dipropylbenzenesulfonamide]",Panx1 channel activity (BzATP-stimulated YO-PRO-1 dye uptake),Panx1 channel,significantly blocked
CCCN(CCC)S(=O)(=O)c1ccc(-c2ccnc(N3CCNCC3)c2)cc1 [Compound 4],Panx1 channel activity (BzATP-stimulated YO-PRO-1 dye uptake),Panx1 channel,significantly blocked
CCCN(CCC)S(=O)(=O)c1ccc(-c2cn[nH]c2)cc1 [Compound 5],Panx1 channel activity (BzATP-stimulated YO-PRO-1 dye uptake),Panx1 channel,significantly blocked
same,Panx1 inhibitory potency relative to Probenecid (patch-clamp),"[1]; voltage ramp -80 to +80 mV, various doses",more potent
CCCN(CCC)S(=O)(=O)c1ccc(-c2cnc(N(C)C)nc2)cc1 [Compound 6],Panx1 channel activity (BzATP-stimulated YO-PRO-1 dye uptake),Panx1 channel,significantly blocked
"CCCN(CCC)S(=O)(=O)c1ccc(C(=O)O)cc1 [probenecid, reference compound]",Block of Panx1 (inhibition of transfected current),[1]; maximum doses,100%
same,Composite withdrawal score,C57BL/6J mice [2],significantly reduced withdrawal score
same,Withdrawal behaviors in mice,C57BL/6J mice [3],ameliorated withdrawal behaviors
same,Withdrawal behaviors,C57BL/6J mice [4],not effective
same,Solubility,[5],poor solubility
